# Data as given in US11484607B2, “PSMA-targeted NIR dyes and their uses” (On Target Laboratories, LLC, priority 2015, dated 2022).
# pKd: −log10 of the molar value.
# Molecular target: T1, PSMA (Homo sapiens, UniProt Q04609)
# T1 construct: host or cells: 22Rv1 human prostate cancer cells
# Test: Relative binding affinity of DUPA-NIR conjugates with respect to DUPA-FITC on 22Rv1 cells, flow cytometry
# Conditions: for pKd: 1 h at 37° C., 100 nM DUPA-FITC; for affinity for PSMA (in words): in vitro binding affinity data
# Method: (§1) FIG. 3—Relative binding affinities of DUPA-NIR conjugates 1-9 with respect to DUPA-FITC (14). PSMA-positive 22Rv1 human prostate cancer cells were incubated for 1 h at 37° C. in the presence of 100 nM DUPA-FITC with increasing concentrations of DUPA-NIR conjugates. […] Cell bound fluorescence was assayed as using flow cytometry.
# as §1, with “6—Relative” for “3—Relative”, “with aromatic amino acids linkers” for “1-9”
# as §1, with “3 Relative” for “3—Relative”
# in vitro studies. […] PSMA-positive 22Rv1 human prostate cancer cells were incubated for 1 h at 37° C. in the presence of 100 nM DUPA-FITC with increasing concentrations of DUPA-NIR conjugates. […] Cell bound fluorescence was assayed as using flow cytometry.
# PSMA-positive 22Rv1 human prostate cancer cells were incubated for 1 h at 37° C. in the presence of 100 nM DUPA-FITC with increasing concentrations of DUPA-NIR conjugates. […] Cell bound fluorescence was assayed as using flow cytometry.
# as §1, with “24: Relative” for “3—Relative”, “conjugates” for “conjugates 1-9”
# PSMA-positive 22Rv1 human prostate cancer cells were incubated for 1 h at 37° C. in the presence of 100 nM DUPA-FITC with increasing concentrations of DUPA-NIR conjugates. […] Cell bound fluorescence was assayed as using flow cytometry
# Cancer cells were incubated for 1 h at 37° C. in the presence of 100 nM DUPA-FITC with increasing concentrations of compound 15. […] Cell bound fluorescence was assayed as using flow cytometry.
# [1] = Example 5, variably charged NIR dye
# [2] = conjugates with variable length spacers
# [3] = conjugates with aromatic linkers
# T1 sequence (Q04609 whole entry): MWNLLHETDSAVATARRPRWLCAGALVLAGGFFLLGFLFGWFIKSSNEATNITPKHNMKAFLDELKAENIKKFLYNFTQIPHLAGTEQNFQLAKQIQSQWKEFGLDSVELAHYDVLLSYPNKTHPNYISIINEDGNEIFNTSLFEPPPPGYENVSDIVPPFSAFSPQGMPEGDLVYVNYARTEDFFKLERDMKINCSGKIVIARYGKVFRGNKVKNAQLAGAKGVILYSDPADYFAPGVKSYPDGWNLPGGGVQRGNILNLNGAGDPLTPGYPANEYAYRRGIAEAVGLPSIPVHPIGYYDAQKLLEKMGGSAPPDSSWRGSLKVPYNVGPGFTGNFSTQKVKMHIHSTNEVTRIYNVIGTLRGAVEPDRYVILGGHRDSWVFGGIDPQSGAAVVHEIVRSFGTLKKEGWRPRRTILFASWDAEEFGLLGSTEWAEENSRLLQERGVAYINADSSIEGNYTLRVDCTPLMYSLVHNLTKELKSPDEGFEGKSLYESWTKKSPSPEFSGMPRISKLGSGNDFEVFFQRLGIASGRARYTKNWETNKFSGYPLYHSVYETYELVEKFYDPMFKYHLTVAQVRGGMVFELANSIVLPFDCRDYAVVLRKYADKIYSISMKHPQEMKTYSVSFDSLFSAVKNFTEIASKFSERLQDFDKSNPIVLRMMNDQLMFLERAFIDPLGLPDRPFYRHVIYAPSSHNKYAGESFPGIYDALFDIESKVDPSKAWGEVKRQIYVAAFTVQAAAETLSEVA
SMILES,pKd [2],affinity for PSMA (in words),also measured
CC1(C)C(/C=C/C2=C(Oc3ccc(C[C@H](NC(=O)[C@H](Cc4ccccc4)NC(=O)CCCCCCCNC(=O)CC[C@H](NC(=O)N[C@@H](CCC(=O)O)C(=O)O)C(=O)O)C(=O)O)cc3)C(=C/C=C3/N(CCC[N+](C)(C)C)c4ccc(S(=O)(=O)O)cc4C3(C)C)/CCC2)=[N+](CCC[N+](C)(C)C)c2ccc(S(=O)(=O)O)cc21 [Compound 60],,,pKd [1]: 8.27
CC1(C)C(/C=C/C2=C(Oc3ccc(C[C@H](NC(=O)C[C@H](NC(=O)CC[C@H](NC(=O)N[C@@H](CCC(=O)O)C(=O)O)C(=O)O)C(=O)O)C(=O)O)cc3)C(=C/C=C3/N(CCCCS(=O)(=O)O)c4ccc(S(=O)(=O)O)cc4C3(C)C)/CCC2)=[N+](CCCCS(=O)(=O)[O-])c2ccc(S(=O)(=O)O)cc21 [Compound 3],8.01,very high affinity,
CC1(C)C(=CC=C2CCCC(C=CC3=[N+](CCCCS(=O)(=O)[O-])c4ccccc4C3(C)C)=C2Oc2ccc(CC(NC(=O)C(CCCNC(=N)N)NC(=O)C(Cc3ccccc3)NC(=O)CCCCCCCNC(=O)CCC(NC(=O)NC(CCC(=O)O)C(=O)O)C(=O)O)C(=O)O)cc2)N(CCCCS(=O)(=O)O)c2ccccc21 (stereo not drawn) [Compound 65],,low affinity,
CC1(C)C(/C=C/C2=C(Oc3ccc(C[C@H](NC(=O)[C@H](Cc4ccccc4)NC(=O)CCCCCCCNC(=O)CC[C@H](NC(=O)N[C@@H](CCC(=O)O)C(=O)O)C(=O)O)C(=O)O)cc3)C(=C/C=C3/N(CCC[N+](C)(C)C)c4ccccc4C3(C)C)/CCC2)=[N+](CCC[N+](C)(C)C)c2ccccc21 [Compound 59],,,pKd [1]: 7.22
CN1/C(=C/C=C2\CCCC(/C=C/C3=[N+](C)c4ccccc4C3(C)C)=C2Oc2ccc(C[C@H](NC(=O)[C@H](Cc3ccccc3)NC(=O)CCCCCCCNC(=O)CC[C@H](NC(=O)N[C@@H](CCC(=O)O)C(=O)O)C(=O)O)C(=O)O)cc2)C(C)(C)c2ccccc21 [Compound 55],,very high affinity,pKd [1]: 8.14
CC1(C)C(/C=C/C2=C(Oc3ccc(C[C@H](NC(=O)CCCCCCCNC(=O)[C@H](Cc4ccccc4)NC(=O)CC[C@H](NC(=O)N[C@@H](CCC(=O)O)C(=O)O)C(=O)O)C(=O)O)cc3)C(=C/C=C3/N(CCCCS(=O)(=O)O)c4ccc(S(=O)(=O)O)cc4C3(C)C)/CCC2)=[N+](CCCCS(=O)(=O)[O-])c2ccc(S(=O)(=O)O)cc21 [Compound 5],7.91,very high affinity,
CC1(C)C(/C=C/C2=C(Oc3ccc(C[C@H](NC(=O)[C@H](Cc4c[nH]c5ccccc45)NC(=O)CCCCCCCNC(=O)CC[C@H](NC(=O)N[C@@H](CCC(=O)O)C(=O)O)C(=O)O)C(=O)O)cc3)C(=C/C=C3/N(CCCCS(=O)(=O)O)c4ccc(S(=O)(=O)O)cc4C3(C)C)/CCC2)=[N+](CCCCS(=O)(=O)[O-])c2ccc(S(=O)(=O)O)cc21 [Compound 33],,,pKd [3]: 7.80
CC1(C)C(=CC=C2CCCC(C=CC3=[N+](CCCCS(=O)(=O)[O-])c4ccccc4C3(C)C)=C2Oc2ccc(CC(NC(=O)C(CCCNC(=N)N)NC(=O)C(CCCNC(=N)N)NC(=O)CCCCCCCNC(=O)CCC(NC(=O)NC(CCC(=O)O)C(=O)O)C(=O)O)C(=O)O)cc2)N(CCCCS(=O)(=O)O)c2ccccc21 (stereo not drawn) [Compound 66],,low affinity,
CC1(C)C(/C=C/C2=C(Oc3ccc(C[C@H](NC(=O)CC[C@H](NC(=O)N[C@@H](CCC(=O)O)C(=O)O)C(=O)O)C(=O)O)cc3)C(=C/C=C3/N(CCCCS(=O)(=O)O)c4ccc(S(=O)(=O)O)cc4C3(C)C)/CCC2)=[N+](CCCCS(=O)(=O)[O-])c2ccc(S(=O)(=O)O)cc21 [Compound 1],6.85,low affinity,
CC1(C)C(/C=C/C2=C(Oc3ccc(C[C@H](NC(=O)CCCCCCCNC(=O)CCCCCCCNC(=O)CC[C@H](NC(=O)N[C@@H](CCC(=O)O)C(=O)O)C(=O)O)C(=O)O)cc3)C(=C/C=C3/N(CCCCS(=O)(=O)O)c4ccc(S(=O)(=O)O)cc4C3(C)C)/CCC2)=[N+](CCCCS(=O)(=O)[O-])c2ccc(S(=O)(=O)O)cc21 [Compound 9],7.76,,
CC1(C)C(/C=C/C2=C(Oc3ccc(C[C@H](NC(=O)CCCCCCCNC(=O)[C@H](Cc4ccccc4)NC(=O)[C@H](Cc4ccccc4)NC(=O)CCCCCCCNC(=O)CC[C@H](NC(=O)N[C@@H](CCC(=O)O)C(=O)O)C(=O)O)C(=O)O)cc3)C(=C/C=C3/N(CCCCS(=O)(=O)O)c4ccc(S(=O)(=O)O)cc4C3(C)C)/CCC2)=[N+](CCCCS(=O)(=O)[O-])c2ccc(S(=O)(=O)O)cc21 [Compound 34],,,pKd [3]: 7.46
CN1/C(=C/C=C2\CCCC(/C=C/C3=[N+](C)c4ccc(S(=O)(=O)[O-])cc4C3(C)C)=C2Oc2ccc(C[C@H](NC(=O)[C@H](Cc3ccccc3)NC(=O)CCCCCCCNC(=O)CC[C@H](NC(=O)N[C@@H](CCC(=O)O)C(=O)O)C(=O)O)C(=O)O)cc2)C(C)(C)c2cc(S(=O)(=O)O)ccc21 [Compound 56],,very high affinity,pKd [1]: 8.43
CC1(C)C(/C=C/C2=C(SC[C@H](NC(=O)[C@H](Cc3ccccc3)NC(=O)[C@H](Cc3ccccc3)NC(=O)CCCCCCCNC(=O)CC[C@H](NC(=O)N[C@@H](CCC(=O)O)C(=O)O)C(=O)O)C(=O)O)C(=C/C=C3/N(CCCCS(=O)(=O)O)c4ccc(S(=O)(=O)O)cc4C3(C)C)/CCC2)=[N+](CCCCS(=O)(=O)[O-])c2ccc(S(=O)(=O)O)cc21 [Compound 27],,,pKd [3]: 7.65
CC1(C)C(/C=C/C2=C(Oc3ccc(C[C@H](NC(=O)[C@H](Cc4ccccc4)NC(=O)[C@H](Cc4ccccc4)NC(=O)CCCCCCCNC(=O)C[C@H](NC(=O)CC[C@H](NC(=O)N[C@@H](CCC(=O)O)C(=O)O)C(=O)O)C(=O)O)C(=O)O)cc3)C(=C/C=C3/N(CCCCS(=O)(=O)O)c4ccc(S(=O)(=O)O)cc4C3(C)C)/CCC2)=[N+](CCCCS(=O)(=O)[O-])c2ccc(S(=O)(=O)O)cc21 [Compound 8],7.63,,
CC1(C)C(/C=C/C2=C(Oc3ccc(C[C@H](NC(=O)[C@H](Cc4c[nH]cn4)NC(=O)CCCCCCCNC(=O)CC[C@H](NC(=O)N[C@@H](CCC(=O)O)C(=O)O)C(=O)O)C(=O)O)cc3)C(=C/C=C3/N(CCCCS(=O)(=O)O)c4ccc(S(=O)(=O)O)cc4C3(C)C)/CCC2)=[N+](CCCCS(=O)(=O)[O-])c2ccc(S(=O)(=O)O)cc21 [Compound 32],,,pKd [3]: 7.49
CC1(C)C(=CC=C2CCOC(C=CC3=[N+](CCCCS(=O)(=O)[O-])c4ccc(S(=O)(=O)O)cc4C3(C)C)=C2c2ccc(C(=O)NCCNC(=O)C(Cc3ccccc3)NC(=O)CCCCCCCNC(=O)CCC(NC(=O)NC(CCC(=O)O)C(=O)O)C(=O)O)cc2)N(CCCCS(=O)(=O)O)c2ccc(S(=O)(=O)O)cc21 (stereo not drawn) [Compound 62],,low affinity,
CC1(C)C(/C=C/C2=C(Oc3ccc(C[C@H](NC(=O)[C@H](Cc4ccccc4)NC(=O)CCCCCCCNC(=O)CC[C@H](NC(=O)N[C@@H](CCC(=O)O)C(=O)O)C(=O)O)C(=O)O)cc3)C(=C/C=C3/N(CCCCS(=O)(=O)O)c4ccccc4C3(C)C)/CCC2)=[N+](CCCCS(=O)(=O)[O-])c2ccccc21 [Compound 54],,,pKd [1]: 8.59
CC1(C)C(/C=C/C2=C(Oc3ccc(CCNC(=O)CC[C@H](NC(=O)N[C@@H](CCC(=O)O)C(=O)O)C(=O)O)cc3)C(=C/C=C3/N(CCCCS(=O)(=O)O)c4ccc(S(=O)(=O)O)cc4C3(C)C)/CCC2)=[N+](CCCCS(=O)(=O)[O-])c2ccc(S(=O)(=O)O)cc21 [Compound 2],6.95,low affinity,
